Data published in patent US10959998B2, “Pharmaceutical use and pharmaceutical composition of pyrroloquinoline quinine, its derivatives and/or its salts” (priority 2015, dated 2021).

Legend:
[1] = system: ectopic endometrial stromal cells; assay: MTT cell proliferation of ectopic endometrial stromal cells; format: cell-based, human
Description: Endometrial tissues were surgically isolated from patients with chocolate cyst of ovary, washed 2 to 3 times with PBS supplemented with antibiotics in ultra-clean cabinet, and cut into tiny pieces (about 1 mm^3 in size) with aseptic scissors. The tissues were digested with 1 mg/ml collagenase type I for 30 to 90 min at 37° C., and continually digested with Dnase I (final concentration of 15 U/ml, 2% Dnase I) for another 30 min. The digested tissues were filtered thorough 60-mesh stainless steel filter cell strainer to remove the undigested cell tissues, and were further filtered with 200- or 400-mesh strainer. The filtered solution was centrifuged at 1000 rpm for 5 min. After removing the supernatants, the cells were washed once with culture medium compounded by DMEM/F12 (1:1 v/v) and 10% fetal bovine serum, re-suspended in the culture medium, and seeded in 6-well tissue culture plate or T25 tissue culture flasks with an appropriate density. After 24 hours incubation, the culture medium was changed to remove the non-adherent blood cells, endothelial cells, macrophages and other miscellaneous cells. After primary human endometrial stromal cells were grown to reach 90% confluence, the cells were digested with 0.25% trypsin for 4 to 6 min, and then subcultured with a split ratio of 1:2 to 1:3. Vimentin which expresses specifically in stromal cells was detected by immuno-fluorescence to measure the cell purity. The cells of purity >95% were used in the following experiments. Primary ectopic endometrial stromal cells of human were subcultured and the subcultured cells of the 3th to 6th passages were chosen as experimental subjects. The cells in logarithmic growth phase were […] and incubated in the cell culture plate at a density of 50%˜60% (i.e. 2×10^4 cells/well). After growing adherent on the wall for 24 hours, the cultured cells were divided into groups and each group was given different doses of PQQ. 20 μL MTT (5 mg/ml in PBS, pH=7.4) was added to each well at indicated time points. The cells were incubated in an incubator at 37° C. in a 5% CO2 atmosphere for 4 h. At the end of incubation, the culture supernatant in each cell was carefully aspirated away. 150 μL DMSO was added to each well. Then the wells were shaken with Orbital shaker for 10 min. The absorbance of each cell was detected at wavelength 490 nm. Finally, the cell proliferation curve was drawn. Primary ectopic endometrial stromal cells were cultured and the subcultured cells of the 3th to 6th passage were chosen as experimental subjects. The cells in logarithmic growth phase were […] and incubated in the cell culture plate at a of 50%˜60% (e.g. 2×10^4 cells/well). The cells grew adhering to the wall for 24 hours before being treated with drugs. The cells were divided into groups and each group was given different dose of PQQ. At indicated time point, 20 μL […] (5 mg/ml in PBS, pH=7.4) was added to every well. The cells were then incubated in an incubator at 37° C. in a 5% CO2 atmosphere for 4 h. After terminating incubation, the culture supernatant in each cell was carefully aspirated away, but formazan crystals should not be aspirated away in any case. 150 μL DMSO was added to each well respectively. All the wells were shaken with Orbital shaker for 10 min to make the crystals adequately solubilized. The absorbance of each cell was detected at wavelength 490 nm. Finally, the cell proliferation curve was drawn.

ectopic endometrial foci = assay: Endometriosis rat model, weight of transplanted foci; format: in vivo, SD rats; conditions: for weight of ectopic endometrial foci compared with the control group / weight of cysts after treatment (mg) Mean ± SD: Example 5, rats; for weight of cysts after treatment (mg) Mean ± SD: water feeding 4 week, PQQ 1 mg/kg, NAC 10 mg/kg, Resveratro 10 mg/kg, n=9
[2] = system: infiltration of endometrial stroma and glands into myometrium; assay: Adenomyosis mouse model created with tamoxifen, pathological section; format: in vivo, mice
Description: Disodium salt of PQQ was used in the present experiment (PQQ-Na2, donated by MITSUBISHI gas chemical (MGC), Japan). The salt was dissolved with water and the concentration of its mother liquid is 1 mg/mL.
In the present Example, the mouse model of adenomyosis was created with tamoxifen. This method is easy to operate, the rate of molding can reach 100%, and the difference between the model mouses caused by the operation is small. At 2˜5 days after birth (the birth day was the first day), the mice were fed with 5 ul/(g·BW) peanut oil/lecithin/condensed milk mixture (volume ratio 2:0.2:3) supplemented with 0.2 mg/ml tamoxifen (produced by shanghai Fudan Fuhua Pharmaceutical Co, Ltd.) by drip feeding. In the negative control group, the mice were fed with peanut oil/lecithin/condensed milk mixture (volume ratio 2:0.2:3), with no tamoxifen added. All the mice were exposed to light for 12 h/day, and were reared by maternal lactation during 1-21 days of age. After 22 days of birth, the mice were separated with mother mice, and the female mice were reserved for the next experiment.
After 3 months, 7 model mice were killed after anesthesia. […] The remaining model mice were divided into 5 groups with 20 mice in each group. One of the groups was chosen as model control group (fed with normal water). The drinking water for other group were supplemented with PQQ (1 mg/kg/day), NAC (10 mg/kg/day), PQQ (1 mg/kg/day) +NAC (10 mg/kg/day) (denoted by P+N (H)); PQQ (0.2 mg/kg/day) +NAC (5 mg/kg/day) (denoted by P+N (L)).
After treatment with drugs for 4 weeks, the mice were killed by anesthesia. The uterus was surgically removed and the invasion of endometria into myometrium was analyzed by the pathological section.

[3] = system: ectopic endometrial stromal cells; conditions: NAC 10 mM, report of Ngo et al. 2009; cited from earlier work
EM lesions = conditions: cited from earlier work; for lesion of EM model mice: Ricci et al. 2013, by antioxidation effect
cysts of EM patients = conditions: after three months of treatment with NAC; cited from earlier work
[4] = 4 weeks in drinking water, PQQ (disodium salt) 1 mg/kg/day, NAC 10 mg/kg/day, P+N (H) 1+10, P+N (L) 0.2+5 mg/kg/day

Compound	cell proliferation ([1]; NAC 10 um alone)	cell proliferation ([1]; NAC 100 um alone)	weight of ectopic endometrial foci compared with the control group (ectopic endometrial foci; after 4 weeks treatment)	weight of cysts after treatment (mg) Mean ± SD (ectopic endometrial foci) [mg]	weight of ectopic cys after treatment (mg) Mean ± SD (ectopic endometrial foci; Example 7, rats, 4 weeks in drinking water, PQQ (disodium salt) 1 mg/kg/day, NAC 10 mg/kg/day, P+N (H) 1+10, P+N (L) 0.2+5 mg/kg/day, n=12) [mg]	weight of ectopic cyst compared with model control group (ectopic endometrial foci; Example 7, rats, after 4 weeks treatment, PQQ as disodium salt)	infiltration of endometrial glands, positive animals/total animals [2, 4]	infiltration of endometrial stroma, positive animals/total animals [2, 4]	number of animals with infiltration of endometrial stroma and glands compared with model control group ([2]; after 4 weeks treatment, PQQ as disodium salt)	proliferation of ectopic endometrial stromal cells [3]	growth of EM lesions (EM lesions; mouse models of endometriosis, NAC daily dose 1.3 g/kg/day)	cysts sizes within EM patients (cysts of EM patients)	lesion of EM model mice (EM lesions)
CC(=O)N[C@@H](CS)C(=O)O [NAC, N-acetyl-L-cysteine]	no evident effect	effectively inhibit the cell proliferation	no evident difference from that of the control group	138.1 ± 33.1	142.1 ± 13.4	no obvious difference with the control group	18/20	19/20	no obvious difference with the control group	inhibit the proliferation of ectopic endometrial stromal cells	significantly inhibit the growth of EM lesions	cysts sizes within EM patients were reduced significantly	–
Oc1ccc(C=Cc2cc(O)cc(O)c2)cc1 [Res, Resveratrol]	–	–	no evident difference from that of the control group	122.1 ± 30.7	–	–	–	–	–	–	–	–	effectively inhibit the lesion of EM model mice
Epigallocatechin-3-gallate [EGCG]	–	–	–	–	–	–	–	–	–	–	–	–	effectively inhibit the lesion of EM model mice
